Results taken from patent US6861432B2, “Piperazine derivatives that destabilize androgen receptors” (Schering Aktiengesellschaft, priority 2001, dated 2005).

Experiments:
[1] = tested on: seminal vesicles; assay: Model 4: Antiandrogenic action on testosterone-stimulated growth of accessory sexual glands of castrated mice; format: in vivo; settings: testosterone propionate 0.03 mg/mouse, test substance 2 × 30 mg/kg s.c., 7 days, CPA 30 mg/kg s.c., bicalutamide from preceding tests
Description: The function and the size of accessory sexual glands (prostate and seminal vesicles) depend on androgens. In castrated animals, a growth of these (organs is induced by androgen administration. The simultaneous treatment with antiandrogens inhibits this growth, depending on the dose.
To examine the test substances, the mice were castrated. The treatment with testosterone propionate (0.03 mg/mouse) and the test substances (formulated 2×daily 30 mg/kg s.c. in benzyl benzoate-castor oil (10:90)) was on the same day. The treatment was carried out over 7 days and at the end of the test, the weights of the seminal vesicles and prostates were determined. The inhibition, in percent, of the seminal vesicle growth was calculated relative to the control groups (with and without testosterone). As a reference substance, cyproterone acetate (30 mg/kg s.c.) was used.

[2] = target: T1, androgen receptor (Homo sapiens, UniProt P10275, T878A); assay: cell-based; settings: for remaining activity at 10 µM / remaining activity at 1 µM: LNCaP; for remaining activity at 10 µM: read-out: AR Content [%] At 10 μM; for remaining activity at 1 µM: read-out: AR Content [%] At 1 μM; for AR Content [%]: R-1881 at 10 nM, percentage of DMSO control
T1 construct: 2*10^6 LNCaP cells in 6 ml of RPMI 1640 without phenol red are grown; endogenous in cells; host or cells: LNCaP (human prostate cell line)
T1 sequence (P10275 1-920 T878A): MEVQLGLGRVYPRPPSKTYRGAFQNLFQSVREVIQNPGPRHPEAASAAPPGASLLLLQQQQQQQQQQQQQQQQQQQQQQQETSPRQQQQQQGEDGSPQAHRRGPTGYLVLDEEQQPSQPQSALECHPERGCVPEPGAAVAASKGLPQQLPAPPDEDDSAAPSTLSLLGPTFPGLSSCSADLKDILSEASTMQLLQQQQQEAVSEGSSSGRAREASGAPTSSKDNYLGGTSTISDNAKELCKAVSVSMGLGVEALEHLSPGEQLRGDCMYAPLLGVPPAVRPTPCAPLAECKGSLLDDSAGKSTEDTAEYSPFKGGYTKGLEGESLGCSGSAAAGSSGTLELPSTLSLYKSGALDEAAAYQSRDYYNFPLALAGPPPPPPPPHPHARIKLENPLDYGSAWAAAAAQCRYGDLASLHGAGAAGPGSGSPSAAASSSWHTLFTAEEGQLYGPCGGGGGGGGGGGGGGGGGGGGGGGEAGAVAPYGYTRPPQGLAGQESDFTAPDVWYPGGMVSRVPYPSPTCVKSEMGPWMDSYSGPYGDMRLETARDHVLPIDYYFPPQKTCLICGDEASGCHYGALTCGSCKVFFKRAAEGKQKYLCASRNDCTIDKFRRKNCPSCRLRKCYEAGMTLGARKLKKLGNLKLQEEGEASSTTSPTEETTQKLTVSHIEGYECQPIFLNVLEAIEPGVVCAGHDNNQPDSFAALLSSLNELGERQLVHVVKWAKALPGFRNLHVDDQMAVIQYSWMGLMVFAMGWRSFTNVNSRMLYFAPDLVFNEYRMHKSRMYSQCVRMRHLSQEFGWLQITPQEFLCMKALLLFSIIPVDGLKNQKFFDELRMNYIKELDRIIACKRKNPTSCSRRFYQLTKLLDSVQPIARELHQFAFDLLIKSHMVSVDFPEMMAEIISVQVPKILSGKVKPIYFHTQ

[3] = tested on: LNCaP cells; assay: Model 2: Inhibition of the proliferation of LNCaP cells (crystal violet assay; antagonism with 0.1 nM R1881, agonism without); format: cell-based, human; settings: for IC50: LNCaP proliferation in the presence of 0.1 nM R1881, 7-8 days, read-out: IC50 [10^−7 M]; for % Inhibition at 1 μM: LNCaP proliferation, 1 μM substance, compared to cell growth in the presence of 0.1 nM R1881

| Structure (SMILES) | remaining activity at 10 µM ([2]; 48 h) [%] | remaining activity at 1 µM ([2]; 48 h) [%] | further results |
| --- | --- | --- | --- |
| CC(=O)O[C@]1(C(C)=O)CC[C@H]2[C@@H]3C=C(Cl)C4=CC(=O)[C@@H]5C[C@@H]5[C@]4(C)[C@H]3CC[C@@]21C [CPA, 17-(acetyloxy)-6-chloro-1β,2β-dihydro-3′H-cyclopropa[1,2]pregna-1,4,6-triene-3,20-dione, reference compound] | – | – | % Inhibition of the MSB Growth [1]: 85% |
| CC1=C(CCCCCCN2CCN(S(=O)(=O)c3ccc(C)cc3)CC2)C(=O)N(c2ccc(C#N)c(C(F)(F)F)c2)C1=O [Example 297, 4-[2,5-Dihydro-3-methyl-4-[6-[4-[(4-methylphenyl)sulfonyl]piperazin-1-yl]hexyl]-2,5-dioxo-1H-pyrrol-1-yl]-2-(trifluoromethyl)benzonitrile] | 59 | – | – |
| CC1=C(CCCCCCN2CCN(S(=O)(=O)c3ccc(C#N)cc3)CC2)C(=O)N(c2ccc(C#N)c(C(F)(F)F)c2)C1=O [Example 300, 4-[3-[6-[4-[(4-Cyanophenyl)sulfonyl]piperazin-1-yl]hexyl]-2,5-dihydro-4-methyl-2,5-dioxo-1H-pyrrol-1-yl]-2-(trifluoromethyl)benzonitrile] | 35 | – | – |
| CC1=C(CCCCCCN2CCN(C(=O)NC(C)C)CC2)C(=O)N(c2ccc(C#N)c(C(F)(F)F)c2)C1=O [Example 319, 4-[6-[1-[4-Cyano-3-(trifluoromethyl)phenyl]-2,5-dihydro-4-methyl-2,5-dioxo-1H-pyrrol-3-yl]hexyl]-N-(1-methylethyl)-piperazine-1-carboxamide] | 74 | – | – |
| CC1=C(CCCCCCN2CCN(C(=O)Nc3ccccc3C(F)(F)F)CC2)C(=O)N(c2ccc(C#N)c(C(F)(F)F)c2)C1=O [Example 324, 4-[6-[1-[4-Cyano-3-(trifluoromethyl)phenyl]-2,5-dihydro-4-methyl-2,5-dioxo-1H-pyrrol-3-yl]hexyl]-N-[2-(trifluoromethyl)phenyl]piperazine-1-carboxamide] | 62 | – | – |
| CC1=C(CCCCCCN2CCN(C(=O)Nc3cccc(F)c3)CC2)C(=O)N(c2ccc(C#N)c(C(F)(F)F)c2)C1=O [Example 326, 4-[6-[1-[4-Cyano-3-(trifluoromethyl)phenyl]-2,5-dihydro-4-methyl-2,5-dioxo-1H-pyrrol-3-yl]hexyl]-N-(3-fluorophenyl)-piperazine-1-carboxamide] | 45 | – | – |
| CC1=C(CCCCCCN2CCN(C(=O)Nc3ccc(F)cc3)CC2)C(=O)N(c2ccc(C#N)c(C(F)(F)F)c2)C1=O [Example 330, 4-[6-[1-[4-Cyano-3-(trifluoromethyl)phenyl]-2,5-dihydro-4-methyl-2,5-dioxo-1H-pyrrol-3-yl]hexyl]-N-(4-fluorophenyl)-piperazine-1-carboxamide] | 46 | – | – |
| CSc1cccc(NC(=O)N2CCN(CCCCCCC3=C(C)C(=O)N(c4ccc(C#N)c(C(F)(F)F)c4)C3=O)CC2)c1 [Example 340, 4-[6-[1-[4-Cyano-3-(trifluoromethyl)phenyl]-2,5-dihydro-4-methyl-2,5-dioxo-1H-pyrrol-3-yl]hexyl]-N-[3-(methylsulfanyl)phenyl]piperazine-1-carboxamide] | 41 | – | – |
| CSc1ccc(NC(=O)N2CCN(CCCCCCC3=C(C)C(=O)N(c4ccc(C#N)c(C(F)(F)F)c4)C3=O)CC2)cc1 [Example 342, 4-[6-[1-[4-Cyano-3-(trifluoromethyl)phenyl]-2,5-dihydro-4-methyl-2,5-dioxo-1H-pyrrol-3-yl]hexyl]-N-[4-(methylsulfanyl)phenyl]piperazine-1-carboxamide] | 67 | – | – |
| CC1=C(CCCCCCN2CCN(C(=O)Nc3c(F)cccc3F)CC2)C(=O)N(c2ccc(C#N)c(C(F)(F)F)c2)C1=O [Example 350, 4-[6-[1-[4-Cyano-3-(trifluoromethyl)phenyl]-2,5-dihydro-4-methyl-2,5-dioxo-1H-pyrrol-3-yl]hexyl]-N-(2,6-difluorophenyl)piperazine-1-carboxamide] | 61 | – | – |
| CC1=C(CCCCCCN2CCN(C(=O)Nc3c(Cl)cccc3Cl)CC2)C(=O)N(c2ccc(C#N)c(C(F)(F)F)c2)C1=O [Example 351] | – | – | AR Content [%] At 10 μM ([2]; LNCaP cells, 10 μM test substance, 48 h, AR/actin as percentage of DMSO control): 61% |
| CC1=C(CCCCCCN2CCN(C(=O)Nc3cc(Cl)nc(Cl)c3)CC2)C(=O)N(c2ccc(C#N)c(C(F)(F)F)c2)C1=O [Example 365, 4-[6-[1-[4-Cyano-3-(trifluoromethyl)phenyl]-2,5-dihydro-4-methyl-2,5-dioxo-1H-pyrrol-3-yl]hexyl]-N-(2,6-dichloropyridin-4-yl)piperazine-1-carboxamide] | 36 | 82 | – |
| CC(CN1C(=S)N(c2ccc(C#N)c(C(F)(F)F)c2)C(=O)C1(C)C)N1CCN(C(=O)c2cccs2)CC1 (centres unmarked) [Example 524, 4-[4,4-Dimethyl-5-oxo-3-[2-[4-[(thien-2-yl)carbonyl]-piperazin-1-yl]propyl]-2-thioxoimidazolidin-1-yl]-2-(trifluoromethyl)benzonitrile] | – | 61 | – |
| CC(C)C(=O)N1CCN(CCCCN2C(=S)N(c3ccc(C#N)c(C(F)(F)F)c3)C(=O)C2(C)C)CC1 [Example 546, 4-[4,4-Dimethyl-3-[4-[4-(2-methyl-1-oxopropyl)piperazin-1-yl]butyl]-5-oxo-2-thioxoimidazolidin-1-yl]-2-(trifluoromethyl)benzonitrile] | – | 68 | % Inhibition of the MSB Growth [1]: 98% |
| CC1(C)C(=O)N(c2ccc(C#N)c(C(F)(F)F)c2)C(=S)N1CCCCCN1CCN(S(=O)(=O)c2ccc(C#N)cc2)CC1 [Example 632, 4-[3-[5-[4-[(4-Cyanophenyl)sulfonyl]piperazin-1-yl]pentyl]-4,4-dimethyl-5-oxo-2-thioxoimidazolidin-1-yl]-2-(trifluoromethyl)benzonitrile] | – | 75 | – |
| CC(C)C(=O)N1CCN(CCCCCCN2C(=S)N(c3ccc(C#N)c(C(F)(F)F)c3)C(=O)C2(C)C)CC1 [Example 653, 4-[4,4-Dimethyl-3-[6-[4-(2-methyl-1-oxopropyl)piperazin-1-yl]hexyl]-5-oxo-2-thioxoimidazolidin-1-yl]-2-(trifluoromethyl)benzonitrile] | – | 71 | – |
| CC(C)(O)C(=O)N1CCN(CCCCCCN2C(=S)N(c3ccc(C#N)c(C(F)(F)F)c3)C(=O)C2(C)C)CC1 [Example 656] | – | – | IC50 [3]: 0.026 µM; % Inhibition at 1 μM [3]: 99% |
| CC1(C)C(=O)N(c2ccc(C#N)c(C(F)(F)F)c2)C(=S)N1CCCCCCN1CCN(C(=O)C(F)(F)F)CC1 [Example 670, 4-[4,4-Dimethyl-5-oxo-2-thioxo-3-[6-[4-(trifluoracetyl)piperazin-1-yl]hexyl]-imidazolidin-1-yl]-2-(trifluoromethyl)-benzonitrile] | – | – | IC50 [3]: 0.024 µM; % Inhibition at 1 μM [3]: 96% |
| CSC(=O)N1CCN(CCCCCCN2C(=S)N(c3ccc(C#N)c(C(F)(F)F)c3)C(=O)C2(C)C)CC1 [Example 696, S-Methyl 4-[6-[3-[4-cyano-3-(trifluoromethyl)phenyl]-5,5-dimethyl-4-oxo-2-thioxoimidazolidin-1-yl]hexyl]piperazine-1-carbothioate] | – | 60 | % Inhibition of the MSB Growth [1]: 87% |
| C[C@]1(O)CC[C@H]2[C@@H]3CCC4=CC(=O)CCC4=C3C=C[C@@]21C [Example R-1881, 17β-hydroxy-17α-methylestra-4,9,11-trien-3-one, reference compound] | – | – | AR Content [%] ([2]; LNCaP cells): 250%; AR Content [%] ([2]; LNCaP cells, listed as R1881): stabilizes the AR protein |
